Test results published in US9302999B2, “Substituted triazoles as herbicides” (E. I. DU PONT DE NEMOURS AND COMPANY, priority 2012, dated 2016).

Key:
Format in all cases: in vivo
[1] = test system: barnyardgrass (Echinochloa crus-galli); test: Test C flooded paddy test: barnyardgrass; settings: scale 0 to 100 (0 no effect, 100 complete control)
Summary of the method: (§1)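 2-leaf stage plants; pots flooded 3 cm above soil; compound applied into paddy water, depth maintained. Greenhouse 13–15 d. Visual rating vs controls, 0–100 (0 = no effect, 100 = complete control); dash = no result.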

[2] = test system: foxtail, giant (giant foxtail, Setaria faberii); test: Test A pre-/postemergence: foxtail, giant; settings: for Foxtail, Giant plant response rating: Postemergence; for Plant response rating, Foxtail, Giant: Preemergence
Summary of the method: (§2)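 Plants in loam–sand blend were treated with test chemicals in non-phytotoxic solvent with surfactant, either as preemergence directed soil spray or postemergence at 2–10 cm, one- to two-leaf stage. After about ten days in greenhouse, injury was rated visually against untreated controls on a 0–100 scale (100 = complete control).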

corn (Zea mays) = test: Test A pre-/postemergence: corn; settings: for Corn plant response rating: Postemergence; for Plant response rating, Corn: Preemergence
Summary of the method: as §2

[3] = test system: sedge, umbrella (small-flower umbrella sedge, Cyperus difformis); test: Test C flooded paddy test: sedge, umbrella; settings: scale 0 to 100 (0 no effect, 100 complete control)
Summary of the method: as §1

[4] = test system: velvetleaf (Abutilon theophrasti); test: Test A pre-/postemergence: velvetleaf; settings: for Velvetleaf plant response rating: Postemergence; for Plant response rating, Velvetleaf: Preemergence
Summary of the method: as §2

[5] = test system: barnyardgrass (Echinochloa crus-galli); test: Test A pre-/postemergence: barnyardgrass; settings: for Barnyardgrass plant response rating: Postemergence; for Plant response rating, Barnyardgrass: Preemergence
Summary of the method: as §2

rice (Oryza sativa) = test: Test C flooded paddy test: rice; settings: scale 0 to 100 (0 no effect, 100 complete control)
Summary of the method: as §1

[6] = test system: pigweed (Amaranthus retroflexus); test: Test A pre-/postemergence: pigweed; settings: for Pigweed plant response rating: Postemergence; for Plant response rating, Pigweed: Preemergence
Summary of the method: as §2

[7] = test system: crabgrass, large (large crabgrass, Digitaria sanguinalis); test: Test A pre-/postemergence: crabgrass, large; settings: for Crabgrass, Large plant response rating: Postemergence; for Plant response rating, Crabgrass, Large: Preemergence
Summary of the method: as §2

[8] = test system: ducksalad (Heteranthera limosa); test: Test C flooded paddy test: ducksalad; settings: scale 0 to 100 (0 no effect, 100 complete control)
Summary of the method: as §1

[9] = test system: wheat (Triticum aestivum); test: Test A pre-/postemergence: wheat; settings: for Wheat plant response rating: Postemergence; for Plant response rating, Wheat: Preemergence
Summary of the method: as §2

[10] = test system: morningglory (Ipomoea spp.); test: Test A pre-/postemergence: morningglory; settings: for Morningglory plant response rating: Postemergence; for Plant response rating, Morningglory: Preemergence
Summary of the method: as §2

[11] = Flood (flooded paddy test), 62 g ai/ha, visual rating after 13 to 15 days
[12] = Flood (flooded paddy test), 125 g ai/ha, visual rating after 13 to 15 days
[13] = Flood (flooded paddy test), 250 g ai/ha, visual rating after 13 to 15 days
[14] = 125 g ai/ha, 0 to 100 scale, 0 is no effect, 100 is complete control
[15] = 500 g ai/ha, visual rating on 0 to 100 scale (0 no effect, 100 complete control), approximately ten days
[16] = 125 g ai/ha, 0 to 100 scale (0 no effect, 100 complete control)
[17] = 500 g ai/ha, 0 to 100 scale, 0 is no effect, 100 is complete control

Cc1nn(-c2ccc(C(F)(F)F)cn2)nc1Cn1cnc(C(F)(F)F)n1 [Compound 8]
Plant response rating, Barnyardgrass [1, 11]: 0
Plant response rating, Barnyardgrass [1, 12]: 0
Plant response rating, Barnyardgrass [1, 13]: 0
Plant response rating, Barnyardgrass ([1]; Flood, 31 g ai/ha): 0
Foxtail, Giant plant response rating [2, 14]: 30
Foxtail, Giant plant response rating [2, 15]: 80
Plant response rating, Foxtail, Giant [2, 16]: 60
Plant response rating, Foxtail, Giant [2, 17]: 90
Corn plant response rating (corn (Zea mays); [14]): 20
Corn plant response rating (corn (Zea mays); [15]): 40
Plant response rating, Corn (corn (Zea mays); [16]): 0
Plant response rating, Corn (corn (Zea mays); [17]): 0
Plant response rating, Sedge, Umbrella [3, 11]: 0
Plant response rating, Sedge, Umbrella [3, 12]: 0
Plant response rating, Sedge, Umbrella [3, 13]: 75
Plant response rating, Sedge, Umbrella ([3]; Flood, 31 g ai/ha): 0
Velvetleaf plant response rating [4, 14]: 30
Velvetleaf plant response rating [4, 15]: 80
Plant response rating, Velvetleaf [4, 16]: 20
Plant response rating, Velvetleaf [4, 17]: 60
Barnyardgrass plant response rating [5, 14]: 10
Barnyardgrass plant response rating [5, 15]: 80
Plant response rating, Barnyardgrass [5, 16]: 20
Plant response rating, Barnyardgrass [5, 17]: 80
Plant response rating, Rice (rice (Oryza sativa); [11]): 0
Plant response rating, Rice (rice (Oryza sativa); [12]): 0
Plant response rating, Rice (rice (Oryza sativa); [13]): 0
Plant response rating, Rice (rice (Oryza sativa); Flood, 31 g ai/ha): 0
Pigweed plant response rating [6, 14]: 60
Pigweed plant response rating [6, 15]: 100
Plant response rating, Pigweed [6, 16]: 90
Plant response rating, Pigweed [6, 17]: 100
Crabgrass, Large plant response rating [7, 14]: 40
Crabgrass, Large plant response rating [7, 15]: 80
Plant response rating, Crabgrass, Large [7, 16]: 90
Plant response rating, Crabgrass, Large [7, 17]: 100
Plant response rating, Ducksalad [8, 11]: 0
Plant response rating, Ducksalad [8, 12]: 0
Plant response rating, Ducksalad [8, 13]: 45
Plant response rating, Ducksalad ([8]; Flood, 31 g ai/ha): 0
Wheat plant response rating [9, 14]: 0
Wheat plant response rating [9, 15]: 20
Plant response rating, Wheat [9, 16]: 0
Plant response rating, Wheat [9, 17]: 10
Morningglory plant response rating [10, 14]: 90
Morningglory plant response rating [10, 15]: 90
Plant response rating, Morningglory [10, 16]: 30
Plant response rating, Morningglory [10, 17]: 90

Cc1nn(-c2ccc(C(F)(F)F)cc2)nc1Oc1ccnc(OC(F)F)c1 [Compound 48]
Plant response rating, Barnyardgrass [1, 11]: 10
Plant response rating, Barnyardgrass [1, 13]: 30
Foxtail, Giant plant response rating [2, 14]: 30
Foxtail, Giant plant response rating [2, 15]: 70
Plant response rating, Foxtail, Giant [2, 16]: 40
Plant response rating, Foxtail, Giant [2, 17]: 100
Corn plant response rating (corn (Zea mays); [14]): 10
Corn plant response rating (corn (Zea mays); [15]): 30
Plant response rating, Corn (corn (Zea mays); [16]): 0
Plant response rating, Corn (corn (Zea mays); [17]): 0
Plant response rating, Sedge, Umbrella [3, 11]: 0
Plant response rating, Sedge, Umbrella [3, 13]: 45
Velvetleaf plant response rating [4, 14]: 30
Velvetleaf plant response rating [4, 15]: 50
Plant response rating, Velvetleaf [4, 16]: 0
Plant response rating, Velvetleaf [4, 17]: 0
Barnyardgrass plant response rating [5, 14]: 10
Barnyardgrass plant response rating [5, 15]: 30
Plant response rating, Barnyardgrass [5, 16]: 0
Plant response rating, Barnyardgrass [5, 17]: 30
Plant response rating, Rice (rice (Oryza sativa); [11]): 10
Plant response rating, Rice (rice (Oryza sativa); [13]): 20
Pigweed plant response rating [6, 14]: 100
Pigweed plant response rating [6, 15]: 100
Plant response rating, Pigweed [6, 16]: 40
Plant response rating, Pigweed [6, 17]: 90
Crabgrass, Large plant response rating [7, 14]: 50
Crabgrass, Large plant response rating [7, 15]: 90
Plant response rating, Crabgrass, Large [7, 16]: 30
Plant response rating, Crabgrass, Large [7, 17]: 100
Plant response rating, Ducksalad [8, 11]: 20
Plant response rating, Ducksalad [8, 13]: 65
Wheat plant response rating [9, 14]: 10
Wheat plant response rating [9, 15]: 20
Plant response rating, Wheat [9, 16]: 0
Plant response rating, Wheat [9, 17]: 0
Morningglory plant response rating [10, 14]: 10
Morningglory plant response rating [10, 15]: 90
Plant response rating, Morningglory [10, 16]: 0
Plant response rating, Morningglory [10, 17]: 20
